Read-outs that look alike come from different tables or passages of the source.
Target: S1P1 (Homo sapiens, UniProt P21453)
Test: CNG cAMP Assay (Assay 1)
Type: cell-based
Set-up: host or cells: HEK293 cells expressing the CNG channel
Procedure, shortened: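 HEK293 cells expressing CNG channel and S1P1, membrane-potential dye loaded; compounds (top 10 μM, 10-point 3-fold, 1.8% DMSO) added with 25 μM Ro 20-1724, 500 nM NECA and 10 nM S1P for 90 min. T90/T0 fluorescence (Ex 350/Em 590 nm) normalised to NECA-alone vs DMSO; EC50 fitted.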

[1] = footnote 1: Relative EC50 was measured, read-out: Assay 1 Relative EC50
[2] = relative EC50 was measured (footnote 1), read-out: Assay 1 Relative EC50

Chain of S1P1 (P21453 whole entry): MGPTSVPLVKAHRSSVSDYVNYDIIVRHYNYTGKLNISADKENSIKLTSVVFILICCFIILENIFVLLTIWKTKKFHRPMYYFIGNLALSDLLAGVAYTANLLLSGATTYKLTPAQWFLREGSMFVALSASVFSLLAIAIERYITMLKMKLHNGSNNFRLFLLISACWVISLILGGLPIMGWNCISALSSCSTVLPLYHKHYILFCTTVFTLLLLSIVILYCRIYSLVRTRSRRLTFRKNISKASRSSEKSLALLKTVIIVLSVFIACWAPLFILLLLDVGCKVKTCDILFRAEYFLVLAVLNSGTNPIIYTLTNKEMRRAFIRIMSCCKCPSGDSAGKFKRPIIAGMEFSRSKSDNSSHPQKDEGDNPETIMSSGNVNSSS

Structure (SMILES)	EC50 (read-out: Assay 1 EC50)	further results
FC(F)(F)c1cc(Cl)c2nc(-c3noc(-c4ccccc4Cl)n3)cn2c1 [Example 229, 8-chloro-2-[5-(2-chlorophenyl)-1,2,4-oxadiazol-3-yl]-6-(trifluoromethyl)imidazo[1,2-a]pyridine]	≤ 100 nM	–
NC(=O)C1CC1c1ccc(-c2noc(-c3cn4cc(C(F)(F)F)cc(Cl)c4n3)n2)c(Cl)c1 (stereo not drawn) [Entry 72]	≤ 100 nM	–
Fc1ccc(-c2noc(-c3cn4cc(C(F)(F)F)cc(Cl)c4n3)n2)c(Br)c1 [Example 168, 2-[3-(2-bromo-4-fluorophenyl)-1,2,4-oxadiazol-5-yl]-8-chloro-6-(trifluoromethyl)imidazo[1,2-a]pyridine]	≤ 100 nM	–
Cc1cc(Cl)c2nc(-c3nc(-c4ccc(NS(C)(=O)=O)cc4Cl)no3)cn2c1 [Example 270, N-{3-chloro-4-[5-(8-chloro-6-methylimidazo[1,2-a]pyridin-2-yl)-1,2,4-oxadiazol-3-yl]phenyl}methanesulfonamide]	–	EC50 [1]: 5000 to 10000 nM
O=C(O)Cc1ccc(-c2noc(-c3cn4cc(C(F)(F)F)cc(Cl)c4n3)n2)c(Cl)c1 [Example 133, (3-chloro-4-{5-[8-chloro-6-(trifluoromethyl)imidazo[1,2-a]pyridin-2-yl]-1,2,4-oxadiazol-3-yl}phenyl)acetic acid]	–	EC50 [1]: 1000 to 5000 nM
O=C(O)CCc1ccc(-c2noc(-c3cn4cc(C(F)(F)F)cc(Cl)c4n3)n2)cc1 [Entry 22]	≤ 100 nM	–
Fc1cccc(F)c1-c1nc(-c2cn3cc(C(F)(F)F)cc(Cl)c3n2)no1 [Example 228, 8-chloro-2-[5-(2,6-difluorophenyl)-1,2,4-oxadiazol-3-yl]-6-(trifluoromethyl)imidazo[1,2-a]pyridine]	100 to 500 nM	–
Fc1ccccc1-c1nc(-c2cn3cc(C(F)(F)F)cc(Cl)c3n2)no1 [Example 230, 8-chloro-2-[5-(2-fluorophenyl)-1,2,4-oxadiazol-3-yl]-6-(trifluoromethyl)imidazo[1,2-a]pyridine]	100 to 500 nM	–
Fc1cccc(-c2noc(-c3cn4cc(C(F)(F)F)cc(Cl)c4n3)n2)c1Cl [Example 157, 8-chloro-2-[3-(2-chloro-3-fluorophenyl)-1,2,4-oxadiazol-5-yl]-6-(trifluoromethyl)imidazo[1,2-a]pyridine]	100 to 500 nM	–
FC(F)(F)c1cc(Cl)c2nc(-c3nc(-c4ccccc4Cl)no3)cn2c1 [Example 273, 8-chloro-2-[3-(2-chlorophenyl)-1,2,4-oxadiazol-5-yl]-6-(trifluoromethyl)imidazo[1,2-a]pyridine]	≤ 100 nM	–
N[C@@H](COc1ccc(-c2noc(-c3cn4cc(C(F)(F)F)cc(Cl)c4n3)n2)c(Cl)c1)C(=O)O [Example 188, O-(3-chloro-4-{5-[8-chloro-6-(trifluoromethyl)imidazo[1,2-a]pyridin-2-yl]-1,2,4-oxadiazol-3-yl}phenyl)serine]	100 to 500 nM	–
Fc1cccc(F)c1-c1nnc(-c2cn3cc(C(F)(F)F)cc(Cl)c3n2)o1 [Entry 66]	500 to 1000 nM	–
CS(=O)(=O)Nc1ccc(-c2nnc(-c3cn4cc(C(F)(F)F)cc(Cl)c4n3)o2)c(Cl)c1 [Example 218, N-(3-chloro-4-{5-[8-chloro-6-(trifluoromethyl)imidazo[1,2-a]pyridin-2-yl]-1,3,4-oxadiazol-2-yl}phenyl)methanesulfonamide]	100 to 500 nM	–
CC(C)(O)c1ccc(-c2noc(-c3cn4cc(C(F)(F)F)cc(Cl)c4n3)n2)c(Cl)c1 [Example 126, 2-(3-chloro-4-{5-[8-chloro-6-(trifluoromethyl)imidazo[1,2-a]pyridin-2-yl]-1,2,4-oxadiazol-3-yl}phenyl)propan-2-ol]	100 to 500 nM	–
O=c1[nH]c(Cc2ccc(-c3noc(-c4cn5cc(C(F)(F)F)cc(Cl)c5n4)n3)c(Cl)c2)no1 [Example 271, 3-[(3-chloro-4-{5-[8-chloro-6-(trifluoromethyl)imidazo[1,2-a]pyridin-2-yl]-1,2,4-oxadiazol-3-yl}phenyl)methyl]-1,2,4-oxadiazol-5(4H)-one]	100 to 500 nM	–
O=C(O)C1CC1c1ccc(-c2noc(-c3cn4cc(C(F)(F)F)cc(Cl)c4n3)n2)cc1F (stereo not drawn) [Example 78, 2-(4-{5-[8-chloro-6-(trifluoromethyl)imidazo[1,2-a]pyridin-2-yl]-1,2,4-oxadiazol-3-yl}-2-fluorophenyl)cyclopropanecarboxylic acid]	100 to 500 nM	–
Cc1cc(-c2noc(-c3cn4cc(C(F)(F)F)cc(Cl)c4n3)n2)ccc1NS(C)(=O)=O [Example 119, N-(4-{5-[8-chloro-6-(trifluoromethyl)imidazo[1,2-a]pyridin-2-yl]-1,2,4-oxadiazol-3-yl}-2-methylphenyl)methanesulfonamide]	≤ 100 nM	–
CS(=O)(=O)Nc1ccc(-c2noc(-c3cn4cc(C(F)(F)F)cc(Cl)c4n3)n2)cc1 [Example 117, N-(4-{5-[8-chloro-6-(trifluoromethyl)imidazo[1,2-a]pyridin-2-yl]-1,2,4-oxadiazol-3-yl}phenyl)methanesulfonamide]	≤ 100 nM	–

Structure (SMILES)	EC50 (read-out: Assay 1 EC50)	further results
O=C(O)CNc1ccc(-c2noc(-c3cn4cc(C(F)(F)F)cc(Cl)c4n3)n2)c(Cl)c1 [Example 103, N-(3-chloro-4-{5-[8-chloro-6-(trifluormethyl)imidazo[1,2-a]pyridin-2-yl]-1,2,4-oxadiazol-3-yl}phenyl)glycine]	100 to 500 nM	–
Oc1cc(Cl)c(-c2noc(-c3cn4cc(C(F)(F)F)cc(Cl)c4n3)n2)cc1F [Example 260, 5-chloro-4-{5-[8-chloro-6-(trifluoromethyl)imidazo[1,2-a]pyridin-2-yl]-1,2,4-oxadiazol-3-yl}-2-fluorophenol]	≤ 100 nM	–
CCN(CC)CCS(=O)(=O)Nc1ccc(-c2noc(-c3cn4cc(C(F)(F)F)cc(Cl)c4n3)n2)c(Cl)c1 [Example 108, N-(3-chloro-4-{5-[8-chloro-6-(trifluoromethyl)imidazo[1,2-a]pyridin-2-yl]-1,2,4-oxadiazol-3-yl}phenyl)-2-(diethylamino)ethanesulfonamide]	–	EC50 [2]: 1000 to 5000 nM
Fc1cccc(Cl)c1-c1noc(-c2cn3cc(C(F)(F)F)cc(Br)c3n2)n1 [Example 147, 8-bromo-2-[3-(2-chloro-6-fluorophenyl)-1,2,4-oxadiazol-5-yl]-6-(trifluoromethyl)imidazo[1,2-a]pyridine]	100 to 500 nM	–
Fc1ccc(-c2noc(-c3cn4cc(C(F)(F)F)cc(Cl)c4n3)n2)c(F)c1 [Example 146, 8-chloro-2-[3-(2,4-difluorophenyl)-1,2,4-oxadiazol-5-yl]-6-(trifluoromethyl)imidazo[1,2-a]pyridine]	500 to 1000 nM	–
OC[C@@H]1C[C@H](Oc2ccc(-c3noc(-c4cn5cc(C(F)(F)F)cc(Cl)c5n4)n3)c(Cl)c2)CN1 [Example 87, {(2S,4S)-4-[(3-chloro-4-{5-[8-chloro-6-(trifluoromethyl)imidazo[1,2-a]pyridin-2-yl]-1,2,4-oxadiazol-3-yl}phenyl)oxy]pyrrolidin-2-yl}methanol]	≤ 100 nM	–
FC(F)(F)c1cc(Cl)c2nc(-c3nc(-c4cccc5[nH]ccc45)no3)cn2c1 [Example 162, 8-chloro-2-[3-(1H-indol-4-yl)-1,2,4-oxadiazol-5-yl]-6-(trifluoromethyl)imidazo[1,2-a]pyridine]	≤ 100 nM	–
O=C(O)[C@@H]1C[C@H](Oc2ccc(-c3noc(-c4cn5cc(C(F)(F)F)cc(Cl)c5n4)n3)c(Cl)c2)CN1 [Example 276, (4S)-4-[(3-chloro-4-{5-[8-chloro-6-(trifluoromethyl)imidazo[1,2-a]pyridin-2-yl]-1,2,4-oxadiazol-3-yl}phenyl)oxy]-L-proline]	≤ 100 nM	–
CS(=O)(=O)c1cc(Cl)c2nc(-c3nc(-c4cc(F)c(CCC(=O)O)cc4Cl)no3)cn2c1 [Example 148, 3-(5-chloro-4-{5-[8-chloro-6-(methylsulfonyl)imidazo[1,2-a]pyridin-2-yl]-1,2,4-oxadiazol-3-yl}-2-fluorophenyl)propanoic acid]	≤ 100 nM	–
O=C(O)CCc1ccc(Nc2nnc(-c3cn4cc(C(F)(F)F)cc(Cl)c4n3)o2)c(Cl)c1 [Entry 74]	–	EC50 [2]: 5000 to 10000 nM
Cc1cc(Br)c2nc(-c3nc(-c4ccc(NS(C)(=O)=O)cc4Cl)no3)cn2c1 [Example 125, N-{4-[5-(8-bromo-6-methylimidazo[1,2-a]pyridin-2-yl)-1,2,4-oxadiazol-3-yl]-3-chlorophenyl}methanesulfonamide]	–	EC50 [2]: 1000 to 5000 nM
CS(=O)(=O)Nc1cc(Cl)c2nc(-c3nc(-c4cc(F)c(CCC(=O)O)cc4Cl)no3)cn2c1 [Entry 59]	–	EC50 [2]: 1000 to 5000 nM
O=C(O)CCc1cc(F)c(-c2noc(-c3cn4cc(C(F)(F)F)cc(Cl)c4n3)n2)cc1F [Entry 60]	≤ 100 nM	–
Oc1cc(Cl)c(-c2noc(-c3cn4cc(C(F)(F)F)cc(Br)c4n3)n2)cc1Cl [Example 197, 4-{5-[8-bromo-6-(trifluoromethyl)imidazo[1,2-a]pyridin-2-yl]-1,2,4-oxadiazol-3-yl}-2,5-dichlorophenol]	100 to 500 nM	–
Nc1ccc(-c2noc(-c3cn4cc(C(F)(F)F)cc(Cl)c4n3)n2)c(Cl)c1 [Example 90, 3-chloro-4-{5-[8-chloro-6-(trifluoromethyl)imidazo[1,2-a]pyridin-2-yl]-1,2,4-oxadiazol-3-yl}aniline]	≤ 100 nM	–
Cc1c(Cl)cn2cc(-c3nc(-c4cc(F)c(CCC(=O)O)cc4Cl)no3)nc2c1Cl [Entry 35]	500 to 1000 nM	–
COc1cc2nc(-c3nc(-c4cc(F)c(CCC(=O)O)cc4Cl)no3)cn2cc1Cl [Entry 55]	–	EC50 [2]: 5000 to 10000 nM
O=C(O)C1CN(Cc2ccc(-c3noc(-c4cn5cc(C(F)(F)F)cc(Cl)c5n4)n3)cc2Cl)C1 [Example 127, 1-[(2-chloro-4-{5-[8-chloro-6-(trifluoromethyl)imidazo[1,2-a]pyridin-2-yl]-1,2,4-oxadiazol-3-yl}phenyl)methyl]azetidine-3-carboxylic acid]	100 to 500 nM	–

From patent US20100160369A1, “S1P1 Agonists and Methods of Making And Using” (EXELIXIS, INC., priority 2008, published 2010)
